What all share (assay type): cell-based
For one test, the system named is KM12-luc cells. As to the kind of experiment: Cell proliferation and growth inhibition assay (CCK-8) in KM12-luc. The conditions noted are these: KM12-luc cells, treated with test compounds for 72 hrs, CCK-8 viability, read-out: NTRK IC50 in KM12-luc. The procedure, abridged: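 IC50 values were fitted by sigmoidal dose-response non-linear regression of CCK-8 OD450 absorbance after 1-4 hrs with reagent. Culture media were IMDM for MV-4-11, RPMI 1640 for H1975 and DMEM for KM12-luc, each with 10% FBS at 37 °C, 5% CO2.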

The next test concerns MV-4-11 (AML) cells. Kind of test: Cell proliferation and growth inhibition assay (CCK-8) in MV-4-11. The conditions noted are these: Homo sapiens, MV4-11; MV-4-11 cells, treated with test compounds for 72 hrs, CCK-8 viability. As for the experimental part: MV-4-11 and H1975 cells were obtained from the American Type Culture Collection and KM12-luc cells were obtained from JCRB Cell Bank. All cell lines were maintained at 37° C. with 5% C02, in media supplemented with 10% fetal bovine serum and penicillin (100 units/mL) and streptomycin (100 μg/mL). MV-4-11 cells were maintained in Iscove's Modified Dubecco's Medium, H1975 cells were cultured with RPMI 1640 media, and KM12-luc cells were maintained in Dulbecco's Modification of Eagle's Medium. CCK-8 reagent was obtained from Yeasen.
Cell proliferation was assessed by CCK-8 assay (Yeasen) per the manufacturer's instructions. The MV-4-11 (AML), H1975, and KM12-luc cells were seeded at 30,000, 3,000 and 2,500 cells per well onto 96-well plates, and after a 24 h incubation, the cells were treated with test compounds for 72 hrs. Cell viability was assayed by incubating the cells with CCK-8 reagent for 1-4 hrs. Absorbance was measured at OD450 using the Beckman DTX880. The data was calculated using GraphPad Prism version 6.01. The IC50 values were fitted using a non-linear regression model with a sigmoidal dose response.

Another test deals with H1975 cells. As to the kind of experiment: Cell proliferation and growth inhibition assay (CCK-8) in H1975. The settings on record: Homo sapiens, NCI-H1975, 72 h, treated with test compounds for 72 hrs, CCK-8 viability, read-out: EGFR IC50 in H1975. Put shortly:
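Cells seeded at 30,000 (MV-4-11, IMDM) or 3,000 (H1975, RPMI 1640) per well, left 24 h, then compound-treated 72 h at 37 °C, 5% CO2, 10% FBS. Viability read by CCK-8 (1–4 h) at OD450. IC50 from sigmoidal dose-response nonlinear regression.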

From patent US20250136576A1, “Heterocyclic Compounds and Uses Thereof” (ACEA Therapeutics, Inc., priority 2021, published 2025) come the findings set out here.

Like-named read-outs stand apart in the source and are kept apart here.

Take `CC(=O)Nc1cc(Nc2ncc(Cl)c(-c3c[nH]c4ccccc34)n2)ccc1N(C)C(=O)CCN(C)C` [Compound 446, N-(2-acetamido-4-((5-chloro-4-(1H-indol-3-yl)pyrimidin-2-yl)amino)phenyl)-3-(dimethylamino)-N-methylpropanamide]: the IC50 in the test on KM12-luc cells (KM12-Luc, 72 h) is 4.9 nM; in the test with MV-4-11 (AML) cells, 10.6 nM; in the test with H1975 cells, 667 nM.

`CC(=O)Nc1cc(Nc2ncc(C(F)(F)F)c(-c3c[nH]c4c(F)cccc34)n2)ccc1N1CC[C@@H](N(C)C)C1` [Compound R-344, (R)—N-(2-(3-(dimethylamino)pyrrolidin-1-yl)-5-((4-(7-fluoro-1H-indol-3-yl)-5-(tri-fluoromethyl)pyrimidin-2-yl)amino)phenyl)acetamide]: the IC50 in the test with KM12-luc cells (KM12-Luc, 72 h) stood at 7.4 nM; in the test on MV-4-11 (AML) cells, 5.4 nM; with H1975 cells, 205 nM.

As to `CC(=O)Nc1cc(Nc2ncc(C(F)(F)F)c(-c3c[nH]c4c(C)cccc34)n2)ccc1N1CC[C@@H](N(C)C)C1` [Compound R-366, (R)—N-(2-(3-(dimethylamino)pyrrolidin-1-yl)-5-((4-(7-methyl-1H-indol-3-yl)-5-(trifluoromethyl)pyrimidin-2-yl)amino)phenyl)acetamide], the IC50 in the test on KM12-luc cells (KM12-Luc, 72 h) is 5.2 nM; in the test on MV-4-11 (AML) cells, 5.3 nM; with H1975 cells, 88.6 nM.

Turning to `COc1cccc2c(-c3nc(Nc4ccc(N5CC[C@@H](N(C)C)C5)c(NC(C)=O)c4)ncc3C(F)(F)F)c[nH]c12` [Compound R-382, (R)—N-(2-(3-(dimethylamino)pyrrolidin-1-yl)-5-((4-(7-methoxy-1H-indol-3-yl)-5-(trifluoromethyl)pyrimidin-2-yl)amino)phenyl)acetamide], the IC50 is 9.2 nM with KM12-luc cells (KM12-Luc, 72 h); 6.3 nM in the test on MV-4-11 (AML) cells; 128 nM with H1975 cells.

As to `COc1cccc2c(-c3nc(Nc4ccc(N5CC[C@@H](N(C)C)C5)c(N)c4)ncc3C(F)(F)F)c[nH]c12` [Compound R-383, (R)-4-(3-(dimethylamino)pyrrolidin-1-yl)-N^1-(4-(7-methoxy-1H-indol-3-yl)-5-(trifluoromethyl)pyrimidin-2-yl)benzene-1,3-diamine], the 50% inhibitory concentration (IC50) was 8.5 nM in the test on KM12-luc cells (KM12-Luc, 72 h); 4.7 nM in the test with MV-4-11 (AML) cells; 129 nM with H1975 cells.

`CC(=O)Nc1cc(Nc2ncc(Cl)c(-c3c[nH]c4c(C)cccc34)n2)ccc1N1CC[C@@H](N(C)C)C1` [Compound R-426, (R)—N-(5-((5-chloro-4-(7-methyl-1H-indol-3-yl)pyrimidin-2-yl)amino)-2-(3-(dimethylamino)pyrrolidin-1-yl)phenyl)acetamide]: the IC50 in the test on KM12-luc cells (KM12-Luc, 72 h) is 2.1 nM; in the test with MV-4-11 (AML) cells, 3 nM; in the test with H1975 cells, 152 nM.

On to `CC(=O)Nc1cc(Nc2ncc(C(F)(F)F)c(-c3c[nH]c4c(F)cccc34)n2)ccc1N1CC[C@H](N(C)C)C1` [Compound S-344, (S)—N-(2-(3-(dimethylamino)pyrrolidin-1-yl)-5-((4-(7-fluoro-1H-indol-3-yl)-5-(tri-fluoromethyl)pyrimidin-2-yl)amino)phenyl)acetamide], for which the IC50 stood at 6.3 nM with KM12-luc cells (KM12-Luc, 72 h); 5.6 nM in the test with MV-4-11 (AML) cells; 198 nM in the test with H1975 cells.

As to `CC(=O)Nc1cc(Nc2ncc(C(F)(F)F)c(-c3c[nH]c4c(C)cccc34)n2)ccc1N1CC[C@H](N(C)C)C1` [Compound S-366, (S)—N-(2-(3-(dimethylamino)pyrrolidin-1-yl)-5-((4-(7-methyl-1H-indol-3-yl)-5-(trifluoromethyl)pyrimidin-2-yl)amino)phenyl)acetamide], the IC50 in the test on KM12-luc cells (KM12-Luc, 72 h) is 3.1 nM; in the test with MV-4-11 (AML) cells, 3 nM; in the test with H1975 cells, 97.8 nM.

Turning to `COc1cccc2c(-c3nc(Nc4ccc(N5CC[C@H](N(C)C)C5)c(NC(C)=O)c4)ncc3C(F)(F)F)c[nH]c12` [Compound S-382a, (S)—N-(2-(3-(dimethylamino)pyrrolidin-1-yl)-5-((4-(7-methoxy-1H-indol-3-yl)-5-(trifluoromethyl)pyrimidin-2-yl)amino)phenyl)acetamide], the IC50 in the test on KM12-luc cells (KM12-Luc, 72 h) came to 5.3 nM; in the test with MV-4-11 (AML) cells, 3.7 nM; in the test with H1975 cells, 134 nM.

Consider `COc1cccc2c(-c3nc(Nc4ccc(N5CC[C@H](N(C)C)C5)c(N)c4)ncc3C(F)(F)F)c[nH]c12` [Compound S-383, (S)-4-(3-(dimethylamino)pyrrolidin-1-yl)-N^1-(4-(7-methoxy-1-1H-indol-3-yl)-5-(trifluoromethyl)pyrimidin-2-yl)benzene-1,3-diamine], for which the IC50 in the test with KM12-luc cells (KM12-Luc, 72 h) was found to be 9.5 nM; with MV-4-11 (AML) cells, 4.6 nM; with H1975 cells, 118 nM.

Regarding `Cc1cccc2c(-c3nc(Nc4ccc(N5CC[C@H](N(C)C)C5)c(N)c4)ncc3Cl)cn(C)c12` [Compound S-425, (S)—N^1-(5-chloro-4-(1,7-dimethyl-1H-indol-3-yl)pyrimidin-2-yl)-4-(3-(dimethylamino)pyrrolidin-1-yl)benzene-1,3-diamine], the values for the IC50 in the test with KM12-luc cells, with MV-4-11 (AML) cells and in the test with H1975 cells were 3.5 nM, 3.2 nM and 167 nM, respectively.

Take `CC(=O)Nc1cc(Nc2ncc(Cl)c(-c3cn(C)c4c(C)cccc34)n2)ccc1N1CC[C@H](N(C)C)C1` [Compound S-426, (S)—N-(5-((5-chloro-4-(1,7-dimethyl-1H-indol-3-yl)pyrimidin-2-yl)amino)-2-(3-(dimethylamino)pyrrolidin-1-yl)phenyl)acetamide]: the IC50 in the test with KM12-luc cells came to 2.7 nM; in the test on MV-4-11 (AML) cells it was 4.2 nM; with H1975 cells, 189 nM.
